Values of other authors as cited in article PMC9516332 (Frontiers in Oncology, 2022).

Columns and labels:
[1] = target: panel of 255 wild-type kinases (Homo sapiens, UniProt Q9H4A3); settings: kinase WNK1; 1 µmol/L single concentration; ref DOI: 10.1371/journal.pone.0092146; cited from earlier work
[2] = target: T1, panel of 255 wild-type kinases (Homo sapiens, UniProt Q05513); settings: kinase PKCζ; 1 µmol/L single concentration; ref DOI: 10.1371/journal.pone.0092146; cited from earlier work
T1 sequence (Q05513 1-592): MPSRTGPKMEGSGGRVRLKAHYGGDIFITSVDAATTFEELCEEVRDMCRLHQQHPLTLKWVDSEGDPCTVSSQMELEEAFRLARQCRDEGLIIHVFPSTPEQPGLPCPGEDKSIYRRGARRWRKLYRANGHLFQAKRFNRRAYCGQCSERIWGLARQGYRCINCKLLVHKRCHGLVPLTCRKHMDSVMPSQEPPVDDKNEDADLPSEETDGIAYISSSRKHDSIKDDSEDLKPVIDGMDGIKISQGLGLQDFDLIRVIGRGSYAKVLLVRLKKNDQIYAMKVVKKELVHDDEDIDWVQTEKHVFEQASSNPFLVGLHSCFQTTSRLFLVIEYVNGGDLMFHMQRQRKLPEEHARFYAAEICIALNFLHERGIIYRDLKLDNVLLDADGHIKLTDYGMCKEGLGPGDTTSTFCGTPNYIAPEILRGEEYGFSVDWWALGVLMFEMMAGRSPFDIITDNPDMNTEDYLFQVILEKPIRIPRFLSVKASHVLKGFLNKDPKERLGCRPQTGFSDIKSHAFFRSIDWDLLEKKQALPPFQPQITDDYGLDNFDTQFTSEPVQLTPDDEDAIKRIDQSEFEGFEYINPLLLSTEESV

[3] = target: panel of 255 wild-type kinases (Homo sapiens, UniProt O75582); settings: MSK1; 1 µmol/L single concentration; ref DOI: 10.1371/journal.pone.0092146; cited from earlier work
[4] = target: panel of 255 wild-type kinases (Homo sapiens, UniProt P05129); settings: kinase PKCγ; 1 µmol/L single concentration; ref DOI: 10.1371/journal.pone.0092146; cited from earlier work
[5] = target: panel of 255 wild-type kinases (Homo sapiens, UniProt O96017); settings: CHK2 kinase assay; 1 µmol/L single concentration; ref DOI: 10.1371/journal.pone.0092146; cited from earlier work
[6] = target: panel of 255 wild-type kinases (Homo sapiens, UniProt Q9HC98); settings: NEK6; 1 µmol/L single concentration; ref DOI: 10.1371/journal.pone.0092146; cited from earlier work
[7] = target: T2, panel of 255 wild-type kinases (Homo sapiens, UniProt P54753); settings: kinase EPHB3; 1 µmol/L single concentration; ref DOI: 10.1371/journal.pone.0092146; cited from earlier work
T2 sequence (P54753 34-998): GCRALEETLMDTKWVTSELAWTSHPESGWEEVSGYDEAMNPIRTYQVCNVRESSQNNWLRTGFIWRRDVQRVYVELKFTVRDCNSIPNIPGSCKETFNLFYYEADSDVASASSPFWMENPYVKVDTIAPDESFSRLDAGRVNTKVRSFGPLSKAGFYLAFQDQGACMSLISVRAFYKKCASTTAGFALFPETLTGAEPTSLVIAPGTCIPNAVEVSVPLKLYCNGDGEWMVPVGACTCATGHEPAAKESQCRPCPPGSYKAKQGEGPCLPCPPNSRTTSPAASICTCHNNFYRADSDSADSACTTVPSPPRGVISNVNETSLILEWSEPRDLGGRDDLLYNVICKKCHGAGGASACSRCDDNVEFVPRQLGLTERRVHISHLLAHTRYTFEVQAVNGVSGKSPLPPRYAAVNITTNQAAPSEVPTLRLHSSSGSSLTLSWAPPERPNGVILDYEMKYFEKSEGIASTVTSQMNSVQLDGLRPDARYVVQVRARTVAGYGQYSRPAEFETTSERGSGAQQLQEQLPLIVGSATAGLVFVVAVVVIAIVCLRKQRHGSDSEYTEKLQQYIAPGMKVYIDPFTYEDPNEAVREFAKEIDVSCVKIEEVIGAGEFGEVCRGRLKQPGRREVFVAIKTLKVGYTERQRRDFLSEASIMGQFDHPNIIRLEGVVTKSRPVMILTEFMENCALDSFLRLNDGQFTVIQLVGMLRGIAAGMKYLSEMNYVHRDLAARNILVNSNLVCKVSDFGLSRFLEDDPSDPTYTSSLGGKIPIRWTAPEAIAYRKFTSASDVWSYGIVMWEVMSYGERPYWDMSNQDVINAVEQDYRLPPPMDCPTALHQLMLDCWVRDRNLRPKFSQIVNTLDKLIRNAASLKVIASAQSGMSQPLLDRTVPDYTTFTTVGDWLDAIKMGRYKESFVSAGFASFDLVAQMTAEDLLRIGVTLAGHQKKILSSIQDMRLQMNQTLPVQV

[8] = target: T3, panel of 255 wild-type kinases (Homo sapiens, UniProt Q9H093); settings: NuaK2; 1 µmol/L single concentration; ref DOI: 10.1371/journal.pone.0092146; cited from earlier work
T3 sequence (Q9H093 1-628): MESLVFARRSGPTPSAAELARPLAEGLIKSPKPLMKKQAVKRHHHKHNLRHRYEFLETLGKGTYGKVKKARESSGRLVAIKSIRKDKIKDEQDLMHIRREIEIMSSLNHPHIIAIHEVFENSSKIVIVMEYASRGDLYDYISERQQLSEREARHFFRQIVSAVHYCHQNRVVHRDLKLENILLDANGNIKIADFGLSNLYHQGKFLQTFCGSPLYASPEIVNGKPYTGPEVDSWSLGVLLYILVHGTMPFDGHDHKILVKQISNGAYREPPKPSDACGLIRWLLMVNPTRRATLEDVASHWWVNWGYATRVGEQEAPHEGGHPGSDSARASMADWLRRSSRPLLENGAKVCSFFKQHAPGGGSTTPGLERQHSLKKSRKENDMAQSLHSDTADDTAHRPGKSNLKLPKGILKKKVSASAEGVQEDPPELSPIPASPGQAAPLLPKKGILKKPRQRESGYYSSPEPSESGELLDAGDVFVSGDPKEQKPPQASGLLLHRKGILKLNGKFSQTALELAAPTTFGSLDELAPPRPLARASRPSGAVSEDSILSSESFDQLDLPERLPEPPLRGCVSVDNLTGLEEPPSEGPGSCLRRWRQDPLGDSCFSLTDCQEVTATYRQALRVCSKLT

**Q.** For `CC(=O)Nc1cccc(-n2c(=O)n(C3CC3)c(=O)c3c(Nc4ccc(I)cc4F)n(C)c(=O)c(C)c32)c1` [trametinib], which “%-inhibition at 1 µmol/L, WNK1” value [1] is on record?
**A.** -1.42%

**Q.** What about the “%-inhibition at 1 µmol/L, PKCζ” value [2] of the same compound?
**A.** 4.31%

**Q.** And the “%-inhibition, MSK1” value [3]?
**A.** -0.531%

**Q.** And the “%-inhibition at 1 µmol/L, PKCγ” value [4]?
**A.** 0.381%

**Q.** What about the “%-inhibition CHK2” value [5] of the same compound?
**A.** -5%

**Q.** What about the “%-inhibition, NEK6” value [6] of the same compound?
**A.** -0.324%

**Q.** And the “%-inhibition at 1 µmol/L, EPHB3” value [7]?
**A.** -5.47%

**Q.** And the “%-inhibition, NuaK2” value [8]?
**A.** 9%
